Data taken from US20120010158A1, “TUMOR NECROSIS FACTOR INHIBITING PEPTIDES AND USES THEREOF” (PANACEA BIOTEC LTD., priority 2008, published 2012).
Residues, ends and D or L forms follow the SMILES beside them.

Assays:
TNF-alpha [1] = molecular target: T1, TNF-alpha (Homo sapiens, UniProt P01375); experiment: Inhibition of TNF-alpha mediated cytotoxicity of L-929 cells (crystal violet)
Description: (§2) The peptides of the present invention were analyzed for inhibition of TNF-alpha induced cytotoxicity employing murine fibroblast cell line, L929. Addition of TNF-alpha to L929 cells (ATCC) induces cytotoxicity, which can be estimated by staining of viable cells with vital dyes like MTT (3-(4,5-Dimethylthiazol-2-yl)-2,5-diphenyltetrazolium bromide, a tetrazole) or crystal violet followed by extraction of dyes with methanol. […] The assay was performed as follows:
(§3) L929 cells (maintained in Dulbecco's modified Eagle's medium supplemented with 10% FCS) were seeded at a density of 2×10^5 cells/ml in a microtitre plates, and incubated with actinomycin D (ACT-D) at concentration of 1 μg/ml for 2 h at 37° C. and 5% CO2. TNF-α (100 pg/ml) preincubated with 75 μM of peptide solution at 37° C. was added to L929 cells and incubated overnight at 37° C., 5% CO2. […]
(§4) The live cells of test and positive control plates were then stained with 100 μl/well of 0.05% crystal violet and incubated at room temperature for 15 min., washed with PBS and kept for overnight drying at room temperature. Crystal violet was extracted from the cells by 100 μl per well of methanol and absorbance of extracted crystal violet dye was estimated at 595 nm. Percent inhibition in cytotoxicity was calculated by the following formula: […]

TNF-R1 = molecular target: T2, TNF-R1 (Homo sapiens, UniProt P19438); experiment: Binding of peptide to TNF-R1 on U937 cells by flow cytometry; details: untreated 83%
T2 construct: endogenous in cells; host or cells: U937
T2 sequence (P19438 30-455): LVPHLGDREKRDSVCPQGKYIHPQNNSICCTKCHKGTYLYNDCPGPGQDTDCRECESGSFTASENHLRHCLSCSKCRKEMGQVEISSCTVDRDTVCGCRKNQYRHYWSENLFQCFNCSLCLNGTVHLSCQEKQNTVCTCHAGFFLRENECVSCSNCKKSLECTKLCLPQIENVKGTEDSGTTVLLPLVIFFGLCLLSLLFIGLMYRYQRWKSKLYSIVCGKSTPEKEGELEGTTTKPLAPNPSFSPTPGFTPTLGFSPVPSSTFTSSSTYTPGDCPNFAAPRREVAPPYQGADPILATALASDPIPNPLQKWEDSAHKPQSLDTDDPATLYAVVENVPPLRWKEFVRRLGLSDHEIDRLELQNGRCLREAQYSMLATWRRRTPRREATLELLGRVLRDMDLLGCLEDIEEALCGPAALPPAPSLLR
Description: (§1) Flow cytometry assay technique was used to investigate binding of peptides to TNF-α or TNF-R1 employing U937 cells (a TNF-receptor expressing human leukemia cell line). Binding of peptide to TNF-α prevents TNF-α from interacting with TNF-R1 which can be analyzed by flow cytometry. Similarly, direct binding of peptide with TNF-R1 reduces percent TNF-R1 positive cells which can be analyzed by flow cytometry.
U937 cells were used to quantify the binding of peptides to TNF-R 1. TNF-alpha upon addition to U937 cells binds to its cognate receptor TNF-R1 on U937 cells leading to a reduction in percent cells positive for TNF-R1. TNF-alpha inhibiting peptides according to present invention bind to TNF-R1 and reduce the TNF-R1 positive cells after incubation of U937 cells with said peptides.
Peptide of Sequence ID-6 was analyzed for binding of peptide to TNF-R1 on U937 cells using flow cytometry. […] After two washes in binding buffer, the cells were analyzed using FACS Calibur flow cytometer (Becton Dickinson). The gates were set on the live cell population, and the degree of binding to TNF-R1 was calculated on the basis of percent cells positive for TNF-RI expression.

[2] = test system: collagen induced arthritis; experiment: Murine model of collagen induced arthritis; format: in vivo, C57BL/6 mice; details: for anticollagen IgG1/IgG2a ratio after therapy: vs PBS treated arthritic animals, FIG. 8b
Description: Male C57BL/6 mice obtained from animal house at Lalru, Panacea Biotec were used to develop a murine model of rheumatoid arthritis. Mice were intradermally immunized with 150 μg of chicken type-II collagen (Sigma) emulsified in complete Freunds adjuvant (CFA) (Sigma). On day 17 after primary immunization, a booster immunization with 100 μg of chick type II collagen in incomplete Freunds adjuvant was administered to animals (Ethan M Shevach, Curr. Prot. Immunol. 2002: 15.0.1-15.0.6; Inglis J et al, 2008 Nature Protocols, 4:612-618). Increase in paw thickness as compared to controls (healthy, male C57BL/6 mice) and presence of anti-collagen IgG antibodies were the parameters to assess development of arthritis. Paw thickness in animals was measured using digital Vernier Calipers and anticollagen antibodies were measured in the mouse serum on day 35 after immunization.
Chicken type-II collagen (sigma) was coated onto ELISA plates at 1 μg/ml in PBS and incubated overnight at 4° C. After three washes in PBS-0.05% Tween 20 (PBS-T), serum from collagen, vehicle (CFA) and PBS (control) injected mice was added to separate wells at dilution of 1:100. Plate was incubated at room temperature for 2 h. After 5 washes in PBS-T rabbit antimouse IgG HRP (Bethyl Laboratories) was added to wells at 1:10000 dilutions and incubated at room temperature for 45 min. After washing the plate in PBS-T, OPD (ortho-phenyl diamine) as substrate was added and colour development observed. Colour development was stopped by 2N HCl. Absorbance was recorded at 490 nm (Ethan M Shevach, Cum Prot. Immunol. 2002: 15.0.1-15.0.6).
Determination of optimum dose and schedule of peptide with Sequence ID-6 was performed in a murine model of collagen induced arthritis (as prepared above). Arthritic mice were randomized according to paw thickness and divided into separate groups of 4-5 animals for intravenous administration of peptide sequence ID-6.
Efficacy of peptide with sequence ID-6 and sequence ID-2 was compared with Etanercept (Marketed and approved TNF-alpha inhibiting agent with the brand name “Enbrel”) using a murine model of collagen induced arthritis (As prepared and described above). Peptides of Sequence ID-6, Sequence ID-2 and Etanercept were intravenously administered to the arthritic mice at a dose of 5 mg/kg three times in first week followed by once every week for three weeks.
Development of disease in collagen induced arthritis is accompanied by an increase in Th1 or proinflammatory response. IgG1/IgG2a levels were measured to determine that whether treatment with the peptides of the present invention and Etanercept improved clinical disease in murine model by decreasing Th1 response. Lower IgG1/IgG2a ratio would indicate down regulation of Th1 or proinflammatory response.

[3] = test system: adjuvant induced arthritis; experiment: Rat model of adjuvant induced arthritis; format: in vivo, Wistar rats; details: 2.5 mg/kg once every day for 6 days, then 3 doses every alternate day; for clinical score: p<0.05, score 0-4, FIG. 9b; for paw thickness: vs PBS treated arthritic rats, FIG. 9a
Description: In vivo efficacy of peptide with sequence ID-6 was evaluated in a rat model of “adjuvant” induced arthritis. This model is widely used for developing and testing anti-inflammatory drugs. Adjuvant arthritis (AA) in rats mimics features of inflammatory arthritis in humans (Pearson et al, 1956, Proc. Soc. Exp. Biol. Med. 112:95-10). AA was induced in male Wistar rats by intradermal immunization with 150 μg of complete freunds adjuvant followed by a booster immunization at day 7 with incomplete freunds adjuvant. Arthritis was evaluated in animals by clinical scoring and measurement of paw and joint thickness using digital vernier calipers. The clinical score was assigned according to following criteria: 0=no erythema or swelling 1=slight erythema or swelling of one of toes or fingers 2=erythema and swelling of more than one toe or finger 3=erythema and swelling of the ankle or wrist 4=complete erythema and swelling of toes or fingers and ankle or wrist and inability to bend the ankle or wrist. Arthritic rats were administered with peptide Sequence ID-6 at a dose of 2.5 mg/kg, once every day for 6 days in the first week followed by 3 doses every alternate day in the second week. Another group of arthritic animals received Etanercept (Et) in similar manner.

TNF-alpha [4] = molecular target: T1, TNF-alpha
Description: as §2, §3, §4

TNF-alpha [5] = molecular target: T1, TNF-alpha; experiment: Inhibition of TNF-α binding to its receptor TNF-R1 on U937 cells (flow cytometry); set-up: host or cells: U937 cells carry the partner receptor endogenously; details: U937 cells with complex of peptide and TNF-alpha (5 ng); untreated 78±1%, TNF-alpha alone 32±10%
Description: as §1
TNF-alpha binds to its cognate receptor TNF-R1 on U937 cells (ATCC) leading to a reduction in percent cells positive for TNF-R1. TNF-alpha binding peptides bind to TNF-alpha and prevent the interaction of TNF-alpha with TNF-R1. The percent cells positive for TNF-R1 can be quantified by staining with fluorochrome conjugated anti-TNF-R1 antibody.
Peptides of Sequence ID-2 and Sequence ID-6 were analyzed for inhibition of TNF-alpha binding to its receptor TNF-R1 on U937 cells. Inhibition of TNF-alpha binding to TNF-RI on U937 cells by peptides with sequence ID-2 or sequence ID-6 was estimated, using fluorescent activated cell sorter (FACS, FACSCALIBUR, Becton Dickinson, USA). […]

[6] = 5 mg/kg i.v. three times in first week then once every week for three weeks, pre vs post treatment, Example 5(d), FIG. 8a
[7] = 5 mg/kg i.v. three times in first week then once every week for three weeks

T1 sequence (P01375 77-233 limits assumed, species assumed): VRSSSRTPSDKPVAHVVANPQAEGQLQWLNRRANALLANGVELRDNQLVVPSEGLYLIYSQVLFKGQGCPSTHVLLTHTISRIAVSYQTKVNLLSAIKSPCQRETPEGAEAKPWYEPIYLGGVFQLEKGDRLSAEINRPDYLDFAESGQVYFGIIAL

| Compound | paw thickness [2, 6] | anticollagen IgG1/IgG2a ratio after therapy [2, 7] | clinical score [3] | paw thickness [3] | also measured |
| --- | --- | --- | --- | --- | --- |
| CC(C)C[C@@H]1NC(=O)[C@H](Cc2ccc(O)cc2)NC(=O)[C@H](CCC(N)=O)NC(=O)[C@H](CO)NC(=O)[C@H](Cc2c[nH]c3ccccc23)NC(=O)[C@@H](NC(=O)[C@@H](N)Cc2ccc(O)cc2)CSSC[C@@H](C(=O)N[C@@H](Cc2ccc(O)cc2)C(=O)O)NC1=O [Cyclic WSQYL, cy Trp-Ser-Gln-Tyr-Leu CY] | – | – | – | – | inhibition at 75 µM (TNF-alpha [1]): 60 ± 10% |
| NC(=O)C[C@H](NC(=O)[C@@H](N)CO)C(=O)N[C@@H](Cc1ccc(O)cc1)C(=O)O [Sequence ID-6, Ser--Asn--Tyr] (H-Ser-Asn-Tyr-OH; N-terminus assumed) | significant lowering of paw thickness | lower ratio of IgG1/IgG2a | significant lowering of clinical score | Lowering of paw thickness | percent cells positive for TNF-R1 (TNF-R1; U937 cells incubated with peptide 250 μM): 32%; paw thickness ([2]; 5 mg/kg i.v. thrice weekly followed by once every week for 3 wks, Example 5(c), FIG. 7): significant reduction of paw thickness; paw thickness ([2]; 7.5 mg/kg i.v. once every week for 4 wks, Example 5(c), FIG. 7): insignificant lowering of paw thickness; ability to inhibit TNF-alpha induced cytotoxicity compared with Etanercept (TNF-alpha [4]): comparable ability; percent cells positive for TNF-R1 (TNF-alpha [5]): 57±8% |
| Etanercept [reference compound] | significant lowering of paw thickness | lower ratio of IgG1/IgG2a | significant lowering of clinical score | Lowering of paw thickness | – |
| TNF-alpha | – | – | – | – | percent cells positive for TNF-R1 (TNF-R1; U937 cells incubated with recombinant TNF-alpha 10 ng): 31.6% |
